# Values of other authors in patent US20220240500A1, “Cryopreservation compositions and methods involving nanowarming” (REGENTS OF THE UNIVERSITY OF MINNESOTA, priority 2016, published 2022).
# System: zebrafish embryos
# Conditions: 2.3 M injected; previous studies
smiles,measurement,value
CC(O)CO (stereo not shown) [Propylene Glycol],survival from injection into the zebrafish embryo,high survival
